The text below walks through data of PubChem BioAssay (NCI).

Each structure is given as a SMILES string.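 1) Cells in 96-well plates. 2) Compound, 48 h, 5 concentrations. 3) Linear interpolation between surrounding doses. 4) Unreached endpoint = highest concentration. GI50 = concentration required for 50% inhibition of growth. TGI is the concentration that stops growth completely.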 A value given as a limit tells only on which side of the number the result lay.

Among the test systems are 786-0 renal; DU-145 prostate; HCC-2998 colon; OVCAR-4 ovarian; RXF 393 renal; SNB-19 CNS; U251 CNS; UACC-62 melanoma; NCI-H522 lung.
Experiment in all cases: inhibition of tumour cell growth, NCI panel, 48 h

As for `O=c1cc(-c2ccncc2)[nH]c2cc3c(cc12)OCO3`, the TGI with 786-0 renal, in the assay on DU-145 prostate, with HCC-2998 colon, in the assay with OVCAR-4 ovarian, with RXF 393 renal and in the assay on SNB-19 CNS was greater than 100 µM each time. The TGI with U251 CNS and in the assay with UACC-62 melanoma was greater than 100 µM each time.
On to `COc1ccc(C2C3=C(COC3=O)Oc3cc4c(cc32)OCO4)c(OC)c1` (stereo not given), for which the TGI with 786-0 renal is greater than 100 µM; in the assay with DU-145 prostate, greater than 100 µM; with HCC-2998 colon, greater than 100 µM; with OVCAR-4 ovarian it was greater than 100 µM; in the assay with RXF 393 renal, 51 µM; in the assay with SNB-19 CNS it was greater than 100 µM. For the same compound, the TGI with U251 CNS is greater than 100 µM.
As for `Cn1c(=O)c2c(nc3n(Cc4ccccc4)c(=O)c(NCCCBr)cn23)n(C)c1=O`, the TGI with 786-0 renal, with DU-145 prostate, in the assay on HCC-2998 colon, in the assay with NCI-H522 lung, in the assay with OVCAR-4 ovarian and with RXF 393 renal was greater than 100 µM in each case. Further, the TGI in the assay with SNB-19 CNS, with U251 CNS and in the assay with UACC-62 melanoma was greater than 100 µM throughout.
For `COc1ccccc1C1Nn2c(nc3ccccc3c2=O)N1c1ccc(C)cc1` (stereo not given), the TGI was 8.37 µM with 786-0 renal; 28.2 µM with DU-145 prostate; 17.5 µM with HCC-2998 colon; 28.5 µM with NCI-H522 lung; 11.9 µM in the assay with OVCAR-4 ovarian; 24 µM in the assay on RXF 393 renal. The TGI in the assay on SNB-19 CNS came out at 21.2 µM; in the assay on U251 CNS, 6.68 µM; in the assay with UACC-62 melanoma, 22.2 µM.
On to `COc1cccc2c1C(=O)c1c(O)c3c(c(O)c1C2=O)C[C@H](O)C[C@@H]3OC1CC(N)C(O)C(C)O1` (stereo not given in full), for which the TGI came to 14.2 µM in the assay on 786-0 renal; 11.6 µM in the assay with DU-145 prostate; 5.86 µM with NCI-H522 lung; 21.4 µM in the assay with OVCAR-4 ovarian; 25 µM with RXF 393 renal; 15.2 µM in the assay with SNB-19 CNS. The TGI in the assay with UACC-62 melanoma was determined as 1.82 µM.
For the compound `CCCCC1=C(C(=O)N2CCOCC2)C2(OCCO2)C1=O`, the TGI with 786-0 renal was 40.6 µM; with DU-145 prostate it was greater than 100 µM; with NCI-H522 lung, 32.6 µM; in the assay with OVCAR-4 ovarian it was greater than 100 µM; in the assay with RXF 393 renal it was 50.3 µM; in the assay with SNB-19 CNS, 43.2 µM. Besides, the figures for the TGI in the assay on U251 CNS and in the assay on UACC-62 melanoma were 88.3 µM and 94.8 µM, respectively.
As for `Cc1cc(C)c2c(=O)cc(-c3cccc(F)c3)[nH]c2n1`, the TGI in the assay with 786-0 renal is greater than 64.2 µM; in the assay with DU-145 prostate it was greater than 45.3 µM; with HCC-2998 colon it was 3.94 µM; in the assay on NCI-H522 lung, 0.141 µM; in the assay on OVCAR-4 ovarian, greater than 100 µM; in the assay on SNB-19 CNS it was greater than 100 µM. The TGI with U251 CNS is greater than 84.1 µM.
In the case of `CC(C)(C)OC(=O)NC(Cc1ccccc1)NC(=O)NC(=O)OCc1ccccc1` (stereo not given), the TGI was greater than 100 µM in the assay with 786-0 renal; greater than 100 µM in the assay on DU-145 prostate; greater than 100 µM in the assay with HCC-2998 colon; greater than 100 µM with NCI-H522 lung; 69.2 µM in the assay with RXF 393 renal; greater than 100 µM with SNB-19 CNS. Besides, the TGI in the assay with U251 CNS and with UACC-62 melanoma was greater than 100 µM each time.
For `CC(=O)OCC1OC(n2c(-c3ccccc3)c(N=Nc3ccccc3)c(C)c(C#N)c2=S)C(OC(C)=O)C(OC(C)=O)C1OC(C)=O` (stereo not given), the TGI with 786-0 renal, with DU-145 prostate, in the assay with HCC-2998 colon, in the assay on OVCAR-4 ovarian, with RXF 393 renal and with SNB-19 CNS was greater than 100 µM in each case. The TGI in the assay on U251 CNS and in the assay on UACC-62 melanoma was greater than 100 µM throughout.
For `Cn1c(=O)c(-c2ccccc2)c(O)c2ccccc21`, the TGI in the assay with 786-0 renal, in the assay on DU-145 prostate, in the assay on HCC-2998 colon, in the assay on NCI-H522 lung, in the assay on OVCAR-4 ovarian and in the assay on RXF 393 renal was greater than 100 µM each time. In addition, the TGI with SNB-19 CNS and in the assay on U251 CNS was greater than 100 µM each time.
As for `C=C1N(C=O)C(C)(C)N(O)C1(C)C`, the TGI with 786-0 renal, with DU-145 prostate, with HCC-2998 colon, in the assay on OVCAR-4 ovarian, in the assay on RXF 393 renal and with SNB-19 CNS was greater than 100 µM in each case. Besides, the TGI with U251 CNS and in the assay with UACC-62 melanoma was greater than 100 µM in each case.
Consider `COc1cc(S(=O)(=O)Nc2ccc(C(=O)/C=C/c3ccc(O)cc3)cc2)ccc1F`, for which the GI50 is greater than 100 µM with DU-145 prostate; greater than 100 µM in the assay on HCC-2998 colon; greater than 100 µM in the assay on OVCAR-4 ovarian; greater than 100 µM with SNB-19 CNS; greater than 100 µM in the assay with U251 CNS; 57.6 µM with UACC-62 melanoma. Besides, the TGI in the assay on DU-145 prostate, with HCC-2998 colon, in the assay with OVCAR-4 ovarian, with SNB-19 CNS, in the assay on U251 CNS and in the assay with UACC-62 melanoma was greater than 100 µM throughout.
Turning to `CC1C(NNc2ccccc2)Oc2cc3c(cc2C1c1ccccc1O)OCO3` (stereo not given), the TGI in the assay with 786-0 renal turned out to be 44.3 µM; in the assay with DU-145 prostate it was 15.1 µM; with HCC-2998 colon it was 17 µM; in the assay with NCI-H522 lung, 14.2 µM; in the assay on RXF 393 renal, 45.9 µM; in the assay on SNB-19 CNS it was 27.4 µM. The figures for the TGI in the assay with U251 CNS and in the assay with UACC-62 melanoma were 22.4 µM and 17.2 µM, respectively.
In the case of `CN1C(=O)N(C)C(O)C(Cl)(Br)C1=O` (stereo not given), the TGI with 786-0 renal, in the assay with DU-145 prostate, in the assay on HCC-2998 colon, in the assay on NCI-H522 lung, in the assay on RXF 393 renal and in the assay on SNB-19 CNS was greater than 100 µM throughout. For the same compound, the TGI in the assay on U251 CNS and with UACC-62 melanoma was greater than 100 µM throughout.
For the compound `CCOc1ccc(Nc2nc(N)nc(N)c2N)cc1`, the TGI is 52.3 µM in the assay with 786-0 renal; greater than 100 µM with DU-145 prostate; 52.1 µM in the assay on NCI-H522 lung; greater than 100 µM in the assay with OVCAR-4 ovarian; 93.4 µM in the assay with SNB-19 CNS; 66 µM with U251 CNS. The compound also had a TGI in the assay on UACC-62 melanoma greater than 100 µM.
On to `COc1ccc2nc(/C(N)=C\C#N)ccc2c1`, for which the TGI with 786-0 renal, with DU-145 prostate, in the assay with NCI-H522 lung, in the assay with OVCAR-4 ovarian, with RXF 393 renal and in the assay with SNB-19 CNS was greater than 100 µM throughout. Besides, the TGI with U251 CNS and with UACC-62 melanoma was greater than 100 µM throughout.
